Molecular target: Na+-NQR (Na+-pumping NADH-ubiquinone oxidoreductase), inhibitor site at NqrB N-terminal region (Vibrio cholerae, UniProt A5F5X0, E157A)
Conditions: substrates NADH and ubiquinone-1; 50% inhibition not reached at highest concentration; mutant activity 50-60% lower than wild type

CCCCCCCC[C@H]1O[C@H]1C/C=C/C=C/[C@H](O)CC(=O)NC1=C[C@](C)(CC)OC1=O [korormicin A]
IC50: > 2000 nM

Reference: publication PMC9325719 (Nature Communications, 2022)
